Tests used:
EP4 = target: T1, EP4 (Homo sapiens, UniProt P35408); assay: Functional calcium flux assay, EP4; assay type: cell-based; details: stably transfected HEK293 cells; PGE2 10 nM; read-out: EP4 Ca2+-flux assay IC50
T1 construct: host or cells: stably transfected HEK293 cells co-expressing a promiscuous G protein and a clytin variant
Method: (§1) Each receptor subtype has an additional promiscuous G protein added in order to couple the aforementioned receptor to the calcium signaling pathway. The parental cell line used also expresses a novel variant of clytin, a calcium-activated photo-protein, to enable sensitive luminescent detection. Briefly, cells were plated at 50,000 cells-per-well in black, clear bottom 96-well plates. The plated cells were allowed to sit at room temperature for 30 min prior to transferring to a humidified, 37° C., 5% CO2 incubator for 18 to 24 h. Assay buffer (HBSS with 20 mM HEPES) and loading buffer (assay buffer plus 10 μM coelenterazine) were prepared on the day of the assay. Assays were performed by aspirating media from the assay plate and washing once with assay buffer, then replacing with loading buffer and allowing the cells to incubate for 1.5 h at room temperature. Compounds were prepared in assay buffer at a 3× final concentration in non-binding plates. Compounds were added to the cell plates and incubated for 30 min at room temperature. The prostanoid receptor ligand PGE2 was prepared at a 4× dilution ratio for a final concentration of 10 nM. Plates were run on a Flexstation™ using a 100 ms integration luminescence protocol for a total of 60 sec with ligand addition at 15 sec. Data were obtained from relative light units as measured by area under the curve.

EP2 = EP2 (Homo sapiens, UniProt P43116);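 also: functional calcium flux assay in stably transfected HEK293 cells expressing EP2 coupled via a promiscuous G protein, clytin luminescence read as area under the curve, 30 min compound preincubation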
Sequence of EP2 (P43116 whole entry): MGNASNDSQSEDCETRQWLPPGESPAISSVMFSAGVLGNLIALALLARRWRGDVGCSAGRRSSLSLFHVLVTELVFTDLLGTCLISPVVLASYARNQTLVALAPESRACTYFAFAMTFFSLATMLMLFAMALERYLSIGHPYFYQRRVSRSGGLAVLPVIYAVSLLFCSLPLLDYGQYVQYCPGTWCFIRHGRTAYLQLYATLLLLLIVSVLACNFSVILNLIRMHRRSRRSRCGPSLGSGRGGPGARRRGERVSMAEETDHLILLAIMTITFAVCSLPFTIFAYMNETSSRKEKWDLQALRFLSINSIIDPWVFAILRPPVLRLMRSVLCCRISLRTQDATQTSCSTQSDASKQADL
Method: as §1

T1 sequence (P35408 whole entry): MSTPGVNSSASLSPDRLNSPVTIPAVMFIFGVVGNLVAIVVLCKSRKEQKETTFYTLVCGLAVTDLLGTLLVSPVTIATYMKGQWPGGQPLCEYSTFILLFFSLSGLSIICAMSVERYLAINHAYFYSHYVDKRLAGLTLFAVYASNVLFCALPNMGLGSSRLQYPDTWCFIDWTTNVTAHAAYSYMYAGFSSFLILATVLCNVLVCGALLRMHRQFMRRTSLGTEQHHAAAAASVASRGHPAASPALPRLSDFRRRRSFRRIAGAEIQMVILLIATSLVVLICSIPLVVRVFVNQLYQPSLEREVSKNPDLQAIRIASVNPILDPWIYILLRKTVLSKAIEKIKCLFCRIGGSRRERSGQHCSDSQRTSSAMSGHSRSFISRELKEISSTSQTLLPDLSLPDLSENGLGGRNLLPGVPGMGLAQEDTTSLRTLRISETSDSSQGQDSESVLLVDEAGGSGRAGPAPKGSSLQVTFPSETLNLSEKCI

SMILES	IC50 (EP4)	IC50 (EP2)
O=C(NC1CC2(C1)CC(C(=O)O)C2)c1ccc(Cl)c2cnn(Cc3ccc(-n4cccn4)cc3)c12 (centres unmarked) [Example 73, (Sa)-6-(1-(4-(1H-pyrazol-1-yl)benzyl)-4-chloro-1H-indazole-7-carboxamido)spiro[3.3]heptane-2-carboxylic acid]	1.3 nM	71 nM
CC(c1ccc(-c2ccccc2)cc1)n1ccc2c(F)ccc(C(=O)NC3CC4(C3)CC(C(=O)O)C4)c21 (single isomer, unassigned) [Example 127, (Sa)-6-(1-((R) or (S)-1-([1,1′-biphenyl]-4-yl)-ethyl)-4-fluoro-1H-indole-7-carboxamido)spiro[3.3]heptane-2-carboxylic acid]	1.2 nM	< 25 nM
CC(c1ccc(N2C[C@H]3C[C@H]3C2)cc1)n1ncc2c(Cl)ccc(C(=O)NC3CC4(C3)CC(C(=O)O)C4)c21 (single isomer, unassigned) [Example 132, (Sa)-6-(1-((R) or (S)-1-(4-((1R, 5S)-3-azabicyclo[3.1.0]hexan-3-yl)phenyl)ethyl)-4-chloro-1H-indazole-7-carboxamido)spiro[3.3]heptane-2-carboxylic acid]	2.2 nM	< 25 nM
O=C(O)CC1CC2(C1)CC(NC(=O)c1cc(Cl)c(F)c3cnn(Cc4ccc(-c5ccccc5)cc4)c13)C2 (centres unmarked) [Example 170, (Ra)-2-(6-(1-([1,1′-Biphenyl]-4-ylmethyl)-5-chloro-4-fluoro-1H-indazole-7-carboxamido)spiro[3.3]heptan-2-yl)acetic acid]	5.1 nM	< 25 nM
COc1cc(C#N)cc(-c2ccc(Cn3ccc4c(F)ccc(C(=O)NC5CC6(C5)CC(C(=O)O)C6)c43)cc2)n1 (centres unmarked) [Example 59, (Sa)-6-(1-(4-(4-cyano-6-methoxypyridin-2-yl)benzyl)-4-fluoro-1H-indole-7-carboxamido)spiro[3.3]heptane-2-carboxylic acid]	2.5 nM	51 nM
COc1cc(-c2ccc(Cn3ncc4cc(Cl)cc(C(=O)NC5CC6(C5)CC(C(=O)O)C6)c43)cc2F)ccn1 (centres unmarked) [Example 154, (Sa)-6-(5-Chloro-1-(3-fluoro-4-(2-methoxypyridin-4-yl)benzyl)-1H-indazole-7-carboxamido)spiro[3.3]heptane-2-carboxylic acid]	2.8 nM	< 25 nM
COc1ncc(-c2ccc(C(C)n3ccc4c(F)ccc(C(=O)NC5CC6(C5)CC(C(=O)O)C6)c43)cc2)cc1Cl (racemic) [Example 120, (Sa)-6-(1-((racemic)-1-(4-(5-chloro-6-methoxypyridin-3-yl)phenyl)-ethyl)-4-fluoro-1H-indole-7-carboxamido)spiro[3.3]heptane-2-carboxylic acid]	11 nM	< 25 nM
COc1ccc2cc(Cn3ncc4c(Cl)ccc(C(=O)N[C@H]5CC6(C5)C[C@H](C(=O)O)C6)c43)ccc2n1 (some centres unmarked) [Example 175, (Sa)-6-(4-Chloro-1-((2-methoxyquinolin-6-yl)methyl)-1H-indazole-7-carboxamido)spiro[3.3]heptane-2-carboxylic acid]	5.6 nM	< 25 nM
N#Cc1cccc(-c2ccc(Cn3ncc4c(Cl)ccc(C(=O)NC5CC6(C5)CC(C(=O)O)C6)c43)cc2)c1 (centres unmarked) [Example 80, (Sa)-6-(4-chloro-1-((3′-cyano-[1,1′-biphenyl]-4-yl)methyl)-1H-indazole-7-carboxamido)spiro[3.3]heptane-2-carboxylic acid]	1.1 nM	55 nM
COc1c(Cl)cc(C(=O)NC2CC3(CC(CC(=O)O)C3)C2)c2c1cnn2Cc1ccc(-c2ccccc2)cc1 (centres unmarked) [Example 171, (Ra)-2-(6-(1-([1,1′-Biphenyl]-4-ylmethyl)-5-chloro-4-methoxy-1H-indazole-7-carboxamido)spiro[3.3]heptan-2-yl)acetic acid]	1.4 nM	< 25 nM
O=C(NC1CC2(C1)CC(C(=O)O)C2)c1ccc(Cl)c2cnn(Cc3ccc(N4CC5CC5(C(F)F)C4)c(F)c3)c12 (racemic) [Example 76, (Sa)-6-(4-chloro-1-(4-((racemic)-1-(difluoromethyl)-3-azabicyclo[3.1.0]hexan-3-yl)-3-fluorobenzy1)-1H-indazole-7-carboxamido)spiro[3.3]heptane-2-carboxylic acid]	< 1 nM	56 nM
O=C(NC1CC2(C1)CC(C(=O)O)C2)c1ccc(F)c2ccn(Cc3ccc(-c4cccc(OC(F)F)c4)cc3)c12 (centres unmarked) [Example 50, (Sa)-6-(1-((3’-(difluoromethoxy)-[1,1′-biphenyl]-4-yl)methyl)-4-f1uoro-1H-indole-7-carboxamido)spiro[3.3]heptane-2-carboxylic acid]	< 1 nM	67 nM
O=C(NC1CC2(C1)CC(C(=O)O)C2)c1cc(Cl)cc2cnn(Cc3ccc(-c4ccccc4)c(F)c3)c12 (centres unmarked) [Example 153, (Sa)-6-(5-Chloro-1-((2fluoro-[1,1′-biphenyl]-4-yl)methyl)-1H-indazole-7-carboxamido)spiro[3.3]heptane-2-carboxylic acid]	< 1 nM	95 nM
CCOc1cc(-c2ccc(C(C)n3ncc4c(Cl)ccc(C(=O)NC5CC6(C5)CC(C(=O)O)C6)c43)cc2)ccn1 (racemic) [Example 124, (Sa)-6-(4-chloro-1-((racemic)-1-(4-(2-ethoxypyridin-4-yl)phenyl)-ethyl)-1H-indazole-7-carboxamido)spiro[3.3]heptane-2-carboxylic acid]	3.9 nM	< 25 nM
COc1cc(-c2ccc(Cn3ccc4c(Cl)ccc(C(=O)NC5CC6(C5)CC(C(=O)O)C6)c43)cc2)ccn1 (centres unmarked) [Example 69]	2.2 nM	33 nM

Results, then the compound that gave them:

IC50 (EP4)	IC50 (EP2)	SMILES
< 1 nM	46 nM	N#Cc1cccc(-c2ccc(Cn3ccc4c(F)ccc(C(=O)NC5CC6(C5)CC(C(=O)O)C6)c43)cc2)c1 (centres unmarked) [Example 55, (Sa)-6-(1-((3’-cyano-[1,1′-biphenyl]-4-yl)methyl)-4-fluoro-1H-indole-7-carboxamido)spiro[3.3]heptane-2-carboxylic acid]
< 1 nM	30 nM	CNC(=O)c1cccc(-c2ccc(Cn3ncc4c(Cl)ccc(C(=O)NC5CC6(C5)CC(C(=O)O)C6)c43)cc2)n1 (centres unmarked) [Example 85, (Sa)-6-(4-chloro-1-(4-(6-(methylcarbamoyl)pyridin-2-yl)benzyl)-1H-indazole-7-carboxamido)spiro[3.3]heptane-2-carboxylic acid]
< 1 nM	70 nM	O=C(NC1CC2(C1)CC(C(=O)O)C2)c1ccc(F)c2ccn(Cc3ccc4cc(F)ccc4c3)c12 (centres unmarked) [Example 37, (Sa)-6-(4-fluoro-1-((6-fluoronaphthalen-2-yl)methyl)-1H-indole-7-carboxamido)spiro[3.3]heptane-2-carboxylic acid]
< 1 nM	65 nM	COc1cc(C(=O)NC2CC3(C2)CC(C(=O)O)C3)c2c(cnn2Cc2ccc(-c3ccccc3)cc2)c1 (centres unmarked) [Example 159, (Sa)-6-(1-([1,1′-Biphenyl]-4-ylmethyl)-5-methoxy-1H-indazole-7-carboxamido)spiro[3.3]heptane-2-carboxylic acid]
< 1 nM	82 nM	COc1ccc2cc(-c3ccc(Cn4ncc5c(Cl)ccc(C(=O)NC6CC7(CC(CC(=O)O)C7)C6)c54)cc3)ccc2n1 (centres unmarked) [Example 146, (Ra)-2-(6-(4-Chloro-1-(4-(2-methoxyquinolin-6-yl)benzyl)-1H-indazole-7-carboxamido)spiro[3.3]heptan-2-yl)acetic acid]
< 1 nM	< 25 nM	O=C(NC1CC2(C1)CC(C(=O)O)C2)c1ccc(Cl)c2cnn(Cc3ccc(C4=CCCC4)c(F)c3)c12 (centres unmarked) [Example 82, (Sa)-6-(4-chloro-1-(4-(cyclopent-1-en-1-yl)-3-fluorobenzyl)-1H-indazole-7-carboxamido)spiro[3.3]heptane-2-carboxylic acid]
< 1 nM	< 25 nM	COc1cc(-c2ccc(Cn3ncc4cc(Cl)cc(C(=O)NC5CC6(C5)CC(C(=O)O)C6)c43)c(F)c2)ccn1 (centres unmarked) [Example 156, (Sa)-6-(5-Chloro-1-(2-fluoro-4-(2-methoxypyridin-4-yl)benzyl)-1H-indazole-7-carboxamido)spiro[3.3]heptane-2-carboxylic acid]
< 1 nM	71 nM	CC(c1ccc(N2C[C@H]3C[C@H]3C2)cc1)n1ncc2c(Cl)ccc(C(=O)NC3CC4(C3)CC(C(=O)O)C4)c21 (mixture of isomers) [Example 77, (Sa)-6-(1-((racemic)-1-(4-((1R,5S)-3-azabicyclo[3.1.0]hexan-3-yl)phenyl)ethyl)-4-chloro-1H-indazole-7-carboxamido)spiro[3.3]heptane-2-carboxylic acid]
< 1 nM	< 25 nM	COc1cc(C#N)cc(-c2ccc(C(C)n3ncc4cccc(C(=O)NC5CC6(C5)CC(C(=O)O)C6)c43)cc2)c1 (single isomer, unassigned) [Example 126, (Sa)-6-(1-((R) or (S)-1-(3′-cyano-5′-methoxy-[1,1′-biphenyl]-4-yl)-ethyl)-1H-indazole-7-carboxamido)spiro[3.3]heptane-2-carboxylic acid]
< 1 nM	30 nM	O=C(NC1CC2(C1)CC(C(=O)O)C2)c1cc(OC(F)F)cc2cnn(Cc3ccc(-c4ccccc4)cc3)c12 (centres unmarked) [Example 163]
< 1 nM	< 25 nM	CCOc1cc(-c2ccc(Cn3ncc4c(Cl)ccc(C(=O)NC5CC6(C5)CC(C(=O)O)C6)c43)cc2)ccn1 (centres unmarked) [Example 79, (Sa)-6-(4-chloro-1-(4-(2-ethoxypyridin-4-yl)benzyl)-1H-indazole-7-carboxamido)spiro[3.3]heptane-2-carboxylic acid]
< 1 nM	< 25 nM	O=C(O)CC1CC2(C1)CC(NC(=O)c1cc(Cl)cc3cnn(Cc4ccc(-c5ccccc5)c(F)c4)c13)C2 (centres unmarked) [Example 151, (Ra)-2-(6-(5-Chloro-1-((2-fluoro-[1,1′-biphenyl]-4-yl)methyl)-1H-indazole-7-carboxamido)spiro[3.3]heptan-2-yl)acetic acid]
< 1 nM	< 25 nM	O=C(NC1CC2(C1)CC(C(=O)O)C2)c1ccc(Cl)c2ccn(Cc3ccc(-c4ccccc4)cc3)c12 (centres unmarked) [Example 68, (Sa)-6-(1-([1,1′-biphenyl]-4-ylmethyl)-4-chloro-1H-indole-7-carboxamido)spiro[3.3]heptane-2-carboxylic acid]

Reference: US12215093B2, “Bicyclic carboxamides and methods of use thereof” (Tempest Therapeutics, Inc., priority 2018, dated 2025)
